Laboratory results from patent US10894784B2, “Heteroarylbenzimidazole compounds” (BAYER PHARMA AKTIENGESELLSCHAFT, priority 2015, dated 2021).

Target: TBK1 (Homo sapiens (Human), UniProt Q9UHD2)
Test: TBK1 low ATP kinase assay (in vitro assay 1)
Format: biochemical
Conditions: in vitro assay 1, read-out: TBK1 low ATP kinase assay IC50

Chain of TBK1 (Q9UHD2 whole entry): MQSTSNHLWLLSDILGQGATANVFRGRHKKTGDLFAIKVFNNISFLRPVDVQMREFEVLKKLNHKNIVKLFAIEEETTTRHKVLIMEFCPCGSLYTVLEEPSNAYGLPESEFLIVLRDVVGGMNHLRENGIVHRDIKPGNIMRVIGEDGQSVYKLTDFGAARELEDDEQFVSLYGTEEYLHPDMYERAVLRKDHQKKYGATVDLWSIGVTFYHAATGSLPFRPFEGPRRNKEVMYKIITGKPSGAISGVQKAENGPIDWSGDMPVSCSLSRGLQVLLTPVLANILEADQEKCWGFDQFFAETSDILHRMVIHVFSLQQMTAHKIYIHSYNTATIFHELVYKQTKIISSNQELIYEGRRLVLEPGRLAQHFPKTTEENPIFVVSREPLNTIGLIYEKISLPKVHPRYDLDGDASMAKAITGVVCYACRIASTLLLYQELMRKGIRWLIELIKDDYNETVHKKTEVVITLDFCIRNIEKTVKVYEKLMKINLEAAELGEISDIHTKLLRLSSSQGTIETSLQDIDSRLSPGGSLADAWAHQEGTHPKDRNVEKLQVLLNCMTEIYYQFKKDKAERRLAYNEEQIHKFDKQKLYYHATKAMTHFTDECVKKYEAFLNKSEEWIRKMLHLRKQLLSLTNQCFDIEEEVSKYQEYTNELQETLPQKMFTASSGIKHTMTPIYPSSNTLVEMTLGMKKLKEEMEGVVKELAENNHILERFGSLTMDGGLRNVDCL

Compound | IC50
O=C(CC(F)(F)F)N1CCN(Cc2ccnc(Nc3nc4ccc(-c5cc(N6CCC6)ncn5)cc4[nH]3)c2)CC1 [Example 147.02, 1-(4-{[2-({6-[6-(azetidin-1-yl)pyrimidin-4-yl]-1H-benzimidazol-2-yl}amino)pyridin-4-yl]methyl}piperazin-1-yl)-3,3,3-trifluoropropan-1-one] | 1.8 nM
COc1c(-c2ccc3nc(Nc4cc(C(C)N5CCN(C(=O)C6CC6)CC5)ccn4)[nH]c3c2)ncnc1N1CC(F)(F)C1 (single isomer, unassigned) [Example 113.03, cyclopropyl(4-{(1R or 1S)-1-[2-({6-[6-(3,3-difluoroazetidin-1-yl)-5-methoxypyrimidin-4-yl]-1H-benzimidazol-2-yl}amino)pyridin-4-yl]ethyl}piperazin-1-yl)methanone] | 1.1 nM
COc1c(C)ncnc1-c1ccc2nc(Nc3cc(CN4CCN(C(=O)C5CC5)CC4)ccn3)[nH]c2c1 [Example 61.01.02, cyclopropyl{4-[(2-{[6-(5-methoxy-6-methylpyrimidin-4-yl)-1H-benzimidazol-2-yl]amino}pyridin-4-yl)methyl]piperazin-1-yl}methanone] | 23 nM
COc1ccc(-c2ccc3nc(Nc4cc(CN5CCN(C(=O)C6CC6)CC5)ccn4)[nH]c3c2)nn1 [Example 47.01, cyclopropyl{4-[(2-{[6-(6-methoxypyridazin-3-yl)-1H-benzimidazol-2-yl]amino}pyridin-4-yl)methyl]piperazin-1-yl}methanone] | 394 nM
COc1c(-c2ccc3nc(Nc4cc(C(C)N5CCN(C(=O)C6CC6)CC5)ccn4)[nH]c3c2)ncnc1N1CCCC1 (single isomer, unassigned) [Example 112.02, cyclopropyl(4-{(1R or 1S)-1-[2-({6-[5-methoxy-6-(pyrrolidin-1-yl)pyrimidin-4-yl]-1H-benzimidazol-2-yl}amino)pyridin-4-yl]ethyl}piperazin-1-yl)methanone] | 1.3 nM
Cc1cc(-c2ccc3nc(Nc4cc(CN5CCN(C(=O)CC(F)(F)F)CC5)ccn4)[nH]c3c2)nc(N(C)C)n1 [Example 178.02, 1-(4-{[2-({6-[2-(dimethylamino)-6-methylpyrimidin-4-yl]-1H-benzimidazol-2-yl}amino)pyridin-4-yl]methyl}piperazin-1-yl)-3,3,3-trifluoropropan-1-one] | 402 nM
CC(c1ccnc(Nc2nc3ccc(-c4ccnn4C(C)C)cc3[nH]2)c1)N1CCN(C(=O)C2CC2)CC1 (single isomer, unassigned) [Example 72.03, cyclopropyl(4-{(1R or 1S)-1-[2-({6-[1-(propan-2-yl)-1H-pyrazol-5-yl]-1H-benzimidazol-2-yl}amino)pyridin-4-yl]ethyl}piperazin-1-yl)methanone] | 100 nM
CC(c1ccnc(Nc2nc3ccc(-c4cnn(CC5CC5(C)C)c4)cc3[nH]2)c1)N1CCN(C(=O)C2CC2)CC1 (single isomer, unassigned) [Example 67.03, cyclopropyl{4-[(1R or 1S)-1-(2-{[6-(1-{[(1RS)-2,2-dimethylcyclopropyl]methyl}-1H-pyrazol-4-yl)-1H-benzimidazol-2-yl]amino}pyridin-4-yl)ethyl]piperazin-1-yl}methanone] | 2 nM
CCOc1ncnc(-c2ccc3nc(Nc4cc(CN5CCN(C(=O)OC(C)(C)C)CC5)ccn4)[nH]c3c2)c1OC [Example 167.01, tert-butyl 4-[(2-{[6-(6-ethoxy-5-methoxypyrimidin-4-yl)-1H-benzimidazol-2-yl]amino}pyridin-4-yl)methyl]piperazine-1-carboxylate] | 222 nM
O=C(C1CC1)N1CCN(Cc2ccnc(Nc3nc4ccc(-c5cnn(CC(F)(F)F)c5)cc4[nH]3)c2)CC1 [Example 58.01.03, cyclopropyl(4-{[2-({6-[1-(2,2,2-trifluoroethyl)-1H-pyrazol-4-yl]-1H-benzimidazol-2-yl}amino)pyridin-4-yl]methyl}piperazin-1-yl)methanone] | 6.44 nM
CNc1cc(-c2ccc3nc(Nc4cc(CN5CCN(C(=O)C6CC6)CC5)ccn4)[nH]c3c2)ncn1 [Example 150.03, cyclopropyl(4-{[2-({6-[6-(methylamino)pyrimidin-4-yl]-1H-benzimidazol-2-yl}amino)pyridin-4-yl]methyl}piperazin-1-yl)methanone] | 5.4 nM
COCCCNc1cc(-c2ccc3nc(Nc4cc(CN5CCN(C(=O)CC(F)(F)F)CC5)ccn4)[nH]c3c2)ncn1 [Example 90.02, 3,3,3-trifluoro-1-[4-({2-[(6-{6-[(3-methoxypropyl)amino]pyrimidin-4-yl}-1H-benzimidazol-2-yl)amino]pyridin-4-yl}methyl)piperazin-1-yl]propan-1-one] | 11 nM
COc1cncnc1-c1ccc2nc(Nc3cc(CN4CCN(C(=O)C5CC5)CC4)ccn3)[nH]c2c1 [Example 35.01.02, cyclopropyl{4-[(2-{[6-(5-methoxypyrimidin-4-yl)-1H-benzimidazol-2-yl]amino}pyridin-4-yl)methyl]piperazin-1-yl}methanone] | 18 nM
COc1cc(-c2ccc3nc(Nc4cc(CN5CCN(C(=O)CC(F)(F)F)CC5)ccn4)[nH]c3c2)c(F)cn1 [Example 03.02, 3,3,3-trifluoro-1-{4-[(2-{[6-(5-fluoro-2-methoxypyridin-4-yl)-1H-benzimidazol-2-yl]amino}pyridin-4-yl)methyl]piperazin-1-yl}propan-1-one] | 232 nM
COc1c(C)ncnc1-c1ccc2nc(Nc3cc(C(C)N4CCN(C(=O)C5CC5)CC4)ccn3)[nH]c2c1 (single isomer, unassigned) [Example 83.04, cyclopropyl{4-[(1R or 1S)-1-(2-{[6-(5-methoxy-6-methylpyrimidin-4-yl)-1H-benzimidazol-2-yl]amino}pyridin-4-yl)ethyl]piperazin-1-yl}methanone] | 1.5 nM
O=C(CC(F)(F)F)N1CCN(Cc2ccnc(Nc3nc4ccc(-c5c(F)cncc5Cl)cc4[nH]3)c2)CC1 [Example 132.02, 1-{4-[(2-{[6-(3-chloro-5-fluoropyridin-4-yl)-1H-benzimidazol-2-yl]amino}pyridin-4-yl)methyl]piperazin-1-yl}-3,3,3-trifluoropropan-1-one] | 190 nM
CN(c1cc(-c2ccc3nc(Nc4cc(CN5CCN(C(=O)C6CC6)CC5)ccn4)[nH]c3c2)ncn1)C1CCC1 [Example 156.03, [4-({2-[(6-{6-[cyclobutyl(methyl)amino]pyrimidin-4-yl}-1H-benzimidazol-2-yl)amino]pyridin-4-yl}methyl)piperazin-1-yl](cyclopropyl)methanone] | 19 nM
CC(c1ccnc(Nc2nc3ccc(-c4cnn(CC5CCC5)c4)c(F)c3[nH]2)c1)N1CCN(C(=O)C2CC2)CC1 (single isomer, unassigned) [Example 171.03, (4-{(1R or 1S)-1-[2-({6-[1-(cyclobutylmethyl)-1H-pyrazol-4-yl]-7-fluoro-1H-benzimidazol-2-yl}amino)pyridin-4-yl]ethyl}piperazin-1-yl)(cyclopropyl)methanone] | 2.85 nM
COc1cc(-c2ccc3nc(Nc4cc(CN5CCN(C(=O)OC(C)(C)C)CC5)ccn4)[nH]c3c2)ncn1 [Example 34.01.01, tert-butyl 4-[(2-{[6-(6-methoxypyrimidin-4-yl)-1H-benzimidazol-2-yl]amino}pyridin-4-yl)methyl]piperazine-1-carboxylate] | 50.6 nM
